From ChEMBL document CHEMBL5352415, “Discovery of new macrophage M2 polarization modulators as multiple sclerosis treatment agents that enable the inflammation microenvironment remodeling” (Eur J Med Chem, 2022)

Tests used:
[1] = Induction of M2 macrophage polarization in C57BL/6 mouse BMDM cells assessed as fold increase in Ym1 gene level at 1 uM incubated for 24 hrs by qRT-PCR analysis; assay type: functional
[2] = target: RAC-beta serine/threonine-protein kinase (Homo sapiens, UniProt P31751); assay: Inhibition of AKT2 (unknown origin); assay type: binding
Sequence of RAC-beta serine/threonine-protein kinase (P31751 whole entry): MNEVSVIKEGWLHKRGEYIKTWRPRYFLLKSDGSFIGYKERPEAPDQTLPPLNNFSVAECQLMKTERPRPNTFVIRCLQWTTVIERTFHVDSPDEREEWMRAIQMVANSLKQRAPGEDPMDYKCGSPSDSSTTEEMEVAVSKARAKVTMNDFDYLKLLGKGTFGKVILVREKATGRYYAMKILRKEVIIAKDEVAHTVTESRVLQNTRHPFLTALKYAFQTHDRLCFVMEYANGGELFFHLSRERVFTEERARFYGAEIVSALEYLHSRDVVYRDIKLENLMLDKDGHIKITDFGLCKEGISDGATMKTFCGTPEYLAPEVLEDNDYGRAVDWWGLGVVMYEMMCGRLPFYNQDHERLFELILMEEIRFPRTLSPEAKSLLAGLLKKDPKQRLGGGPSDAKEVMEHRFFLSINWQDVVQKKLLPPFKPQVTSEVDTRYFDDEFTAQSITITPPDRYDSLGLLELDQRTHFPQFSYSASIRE

[3] = target: RAC-alpha serine/threonine-protein kinase (Homo sapiens, UniProt P31749); assay: Inhibition of AKT1 (unknown origin); assay type: binding
Sequence of RAC-alpha serine/threonine-protein kinase (Homo sapiens, UniProt P31749) (P31749 whole entry): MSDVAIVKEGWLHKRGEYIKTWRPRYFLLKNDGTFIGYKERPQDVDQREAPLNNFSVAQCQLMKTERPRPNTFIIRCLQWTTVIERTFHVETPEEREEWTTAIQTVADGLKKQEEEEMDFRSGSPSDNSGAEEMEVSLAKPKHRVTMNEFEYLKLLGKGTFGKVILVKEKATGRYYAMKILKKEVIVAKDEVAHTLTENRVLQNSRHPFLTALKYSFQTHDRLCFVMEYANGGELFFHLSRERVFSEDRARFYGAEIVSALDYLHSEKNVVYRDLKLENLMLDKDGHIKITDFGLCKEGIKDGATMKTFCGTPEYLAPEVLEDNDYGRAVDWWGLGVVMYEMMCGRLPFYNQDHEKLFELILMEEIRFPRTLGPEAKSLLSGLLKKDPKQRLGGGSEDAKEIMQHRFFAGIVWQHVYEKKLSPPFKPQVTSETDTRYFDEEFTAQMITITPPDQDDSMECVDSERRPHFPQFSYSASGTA

[4] = Induction of M2 macrophage polarization in C57BL/6 mouse BMDM cells assessed as fold increase in Arg1 gene level at 1 uM incubated for 24 hrs by qRT-PCR analysis; assay type: functional
[5] = Inhibition of LPS-induced M1 macrophage polarization in C57BL/6 mouse BMDM cells assessed as fold decrease in Inos gene level at 1 uM preincubated with LPS for 24 hrs followed by compound addition and measured after 24 hrs by qRT-PCR analysis (reference value: 524.05 +/- 24.75); assay type: functional
[6] = Inhibition of M1 macrophage polarization in C57BL/6 mouse BMDM cells assessed as fold decrease in Inos gene level at 1 uM incubated for 24 hrs by qRT-PCR analysis (reference value: 1); assay type: functional
[7] = target: T1, RAC-alpha serine/threonine-protein kinase (Mus musculus, UniProt P31750); assay: Inhibition of LPS-induced Akt phosphorylation at Ser473 in C57BL/6 mouse BMDM cells at 50 to 500 nM incubated for 24 hrs by Western blot analysis; assay type: cell-based; details: 0.5 µM, dose 50-500 nM
T1 sequence (P31750 whole entry): as the sequence (P31749 whole entry) above, with S2N, A50S, T100A, K112R, E117T, K389T, G410N, H415D counted along it

[8] = target: T1, RAC-alpha serine/threonine-protein kinase; assay: Inhibition of Akt phosphorylation at Ser473 in C57BL/6 mouse BMDM cells at 50 to 500 nM incubated for 24 hrs by Western blot analysis; assay type: cell-based; details: 0.5 µM, dose 50-500 nM

Compound: Cn1ncc(Br)c1-c1ccc2c(c1)CN([C@@H]1CNCC[C@H]1c1ccc(F)c(F)c1)C2=O
- fold change (FC) [1]: 7.52
- IC50 [2]: 2.7 nM
- IC50 [3]: 1.6 nM
- fold change (FC) [4]: 1.93

Compound: Cl.O=C(N[C@@H]1CNCC[C@H]1c1ccc(F)c(F)c1)c1c(F)cc(-c2ccn[nH]2)cc1F
- fold change (FC) [1]: 8.14
- IC50 [2]: > 1000 nM
- IC50 [3]: 28 nM
- fold change (FC) [4]: 1.72

Compound: Cl.Cn1nccc1-c1ccc(C(=O)N[C@@H]2CNCC[C@H]2c2ccc(F)c(F)c2)cc1C1CC1
- fold change (FC) [1]: 1.38
- IC50 [2]: > 1000 nM
- IC50 [3]: 157 nM
- fold change (FC) [4]: 3.31

Compound: CC(C)c1cc(C(=O)N[C@@H]2CNCC[C@H]2c2ccc(F)c(F)c2)ccc1-c1ccnn1C.Cl
- fold change (FC) [1]: 2.06
- IC50 [2]: > 1000 nM
- IC50 [3]: 555 nM
- fold change (FC) [4]: 2.06

Compound: CCCc1cc(C(=O)N[C@@H]2CNCC[C@H]2c2ccc(F)c(F)c2)ccc1-c1c(Br)cnn1C.Cl
- fold change (FC) [1]: 3.86
- IC50 [2]: > 1000 nM
- IC50 [3]: > 1000 nM
- fold change (FC) [4]: 1.42

Compound: Cl.O=C(N[C@@H]1CNCC[C@H]1c1ccc(F)c(F)c1)c1c(F)cc(-c2[nH]ncc2Br)cc1F
- fold change (FC) [1]: 19.79
- IC50 [3]: > 1000 nM
- fold change (FC) [4]: 2.38

Compound: Cl.Cn1ncc(Cl)c1-c1ccc(C(=O)N[C@@H]2CNCC[C@H]2c2ccc(F)c(F)c2)cc1C1CC1
- fold change (FC) [1]: 3.51
- IC50 [3]: 143 nM
- fold change (FC) [4]: 2.62

Compound: Cn1ncc(Cl)c1-c1ccc(C(=O)N[C@@H]2CNCC[C@H]2c2ccc(F)c(F)c2)cc1
- fold change (FC) [1]: 8.63
- IC50 [3]: 5 nM
- fold change (FC) [4]: 2.41

Compound: Cc1cc(C(=O)N[C@@H]2CNCC[C@H]2c2ccc(F)c(F)c2)ccc1-c1ccnn1C.Cl
- fold change (FC) [5]: 313.7
- fold change (FC) [1]: 14.49
- fold change (FC) [6]: 0.82
- IC50 [3]: 102 nM
- fold change (FC) [4]: 8.13

Compound: Cn1nccc1-c1ccc2c(c1)CN([C@@H]1CNCC[C@H]1c1ccc(F)c(F)c1)C2=O
- fold change (FC) [1]: 3.59
- IC50 [3]: 4.3 nM
- fold change (FC) [4]: 2.24

Compound: CC(C)c1cc(C(=O)N[C@@H]2CNCC[C@H]2c2ccc(F)c(F)c2)ccc1-c1c(Br)cnn1C.Cl
- fold change (FC) [1]: 4.49
- IC50 [2]: > 1000 nM
- IC50 [3]: > 1000 nM
- fold change (FC) [4]: 2.6

Compound: CCCc1cc(C(=O)N[C@@H]2CNCC[C@H]2c2ccc(F)c(F)c2)ccc1-c1ccnn1C.Cl
- fold change (FC) [1]: 3.84
- IC50 [3]: 92 nM
- fold change (FC) [4]: 1.43

Compound: Cc1cc(C(=O)N[C@@H]2CNCC[C@H]2c2ccc(F)c(F)c2)ccc1-c1c(Cl)cnn1C.Cl
- fold change (FC) [1]: 12.2
- inhibition (INH) [7]: Not Active
- IC50 [3]: 299 nM
- fold change (FC) [4]: 1.55
- inhibition (INH) [8]: Not Active

Compound: Cl.O=C(N[C@@H]1CNCC[C@H]1c1ccc(F)c(F)c1)c1c(F)cc(-c2ccn[nH]2)cc1Cl
- fold change (FC) [1]: 1.94
- IC50 [3]: 69.2 nM
- fold change (FC) [4]: 1.39

Compound: CCCc1cc(C(=O)N[C@@H]2CNCC[C@H]2c2ccc(F)c(F)c2)ccc1-c1c(Cl)cnn1C.Cl
- fold change (FC) [1]: 3.47
- IC50 [3]: 245 nM
- fold change (FC) [4]: 1.92

Compound: CC(C)c1cc(C(=O)N[C@@H]2CNCC[C@H]2c2ccc(F)c(F)c2)ccc1-c1c(Cl)cnn1C.Cl
- fold change (FC) [1]: 5.03
- IC50 [3]: 69.3 nM
- fold change (FC) [4]: 2.77

Compound: Cc1cc(C(=O)N[C@@H]2CNCC[C@H]2c2ccc(F)c(F)c2)ccc1-c1c(Br)cnn1C.Cl
- fold change (FC) [1]: 4.87
- IC50 [2]: > 1000 nM
- IC50 [3]: 341 nM
- fold change (FC) [4]: 2.62
